Experimental data published in a melting point compilation (Tetko et al.; mined from patent text by program, amines drawn as free bases though some values may be those of a salt).

Row | SMILES | melting point [°C]
1 | CC(C)c1ccc(C2=C(c3ccc(S(C)(=O)=O)cc3)OC3(CCCC3)C2=O)cc1 | 139 to 140
2 | Cc1noc(NC(=O)c2c(O)ccc3cc(-c4cccc(O)c4)ccc23)c1C | 108
3 | C=CCc1c(F)ccc2c3c([nH]c12)C(CC)(CC(=O)O)OCC3 (stereo unspecified) | 123 to 125
4 | COCOCc1c([N+](=O)[O-])cc(OC)c(OC)c1OC | 39 to 40
5 | CC(CO)(Cc1c[nH]c2ccccc12)NC(=O)OC1C2CC3CC(C2)CC1C3 (stereo unspecified) | 72 to 74
6 | COC(=O)c1cc(C(=O)OC)n(C(c2ccccc2)(c2ccccc2)c2ccccc2)n1 | 212 to 214
7 | Fc1ccccc1NC1(c2nnn[nH]2)CCN(Cc2ccccc2)CC1 | 195 to 198
8 | O=c1c2c(c3cccnc3n1-c1ccccc1)N(c1ccccc1)CC2 | 220 to 222
9 | COc1cccc(OC)c1CN1CC2CCCN2c2ccccc21 (stereo unspecified) | 124 to 125
10 | CC(C)c1cccc2c1N(CC(=O)N1CC3CCC(CC3)C1)C(=O)C(NC(=O)Nc1cccc(-c3nnn[nH]3)c1)N=C2c1ccccc1F (stereo unspecified) | 212 to 222
11 | Cc1cc2ccc3c(c2o1)OC(CN1CC=C(c2c[nH]c4ccccc24)CC1)CO3 (stereo unspecified) | 198 to 200
12 | COc1ccc2c(c1)C(C(=O)N(Cc1ccc(N(C)C)cc1)c1ccc(C(C)C)cc1)CCO2 (stereo unspecified) | 82 to 84
13 | COc1ccc(CSc2nnc(-c3ccc4ncsc4c3)o2)cc1C(F)(F)F | 145 to 146
14 | Nc1nc2ccccc2c2c1ncn2CCCCNC(=O)N1CCOCC1 | 177 to 180
15 | Cc1ccc2c(c1)N(CC(=O)c1ccccc1C)C(=O)C(NC(=O)Nc1cccc(C(=O)O)c1)CN2C(=O)C(C)C (stereo unspecified) | 162 to 165
16 | O=C(OC(=O)c1ccc([N+](=O)[O-])cc1S(=O)(=O)O)c1ccc([N+](=O)[O-])cc1S(=O)(=O)O | 110 to 116
17 | COC(=O)c1ccc(S(C)(=O)=O)c(C=NO)c1Cl | 126 to 128
18 | CCc1oc(-c2ccc(C(F)(F)F)cc2)cc1C=O | 95 to 96
19 | Cc1ccc(C)c(CNc2c(NC(C)(C)C)c(=O)c2=O)c1 | 246 to 247
20 | O=C1CN(c2nccnc2[N+](=O)[O-])CCN1 | 178 to 179
21 | O=c1c(-c2ccc(F)cc2)coc2cc(O)c(O)cc12 | 296
22 | COc1cc2nc(C(C)(C)C)sc2cc1NC(=S)N1CCN(CCO)CC1 | 161 to 162
23 | CCOC(=O)c1c[nH]c2c(OCOC)ccc(OC)c2c1=O | 175 to 177
24 | COC(=O)[C@@H]1CSC(=O)N1CC(C)(C)SCc1ccc(OC)cc1 | 51 to 54

Row | SMILES | melting point [°C]
25 | C=C(c1cncn1Cc1ccccc1)C(c1cc(C)cc(C)c1)c1cc(C)cc(C)c1 | 170 to 176
26 | CCCC(Cl)(Cl)C(NC(=O)c1ccc(Cl)cc1)NC(=N[N+](=O)[O-])Nc1cccnc1 (stereo unspecified) | 198 to 200
27 | C#CCCCCn1ncc2c(N)c(C(=O)OCC)c(C)nc21 | 63 to 65
28 | CCCCOc1nc(N)c2[nH]c(=O)n(CCCCNS(=O)(=O)c3ccc(CCC(=O)O)cc3)c2n1 | 210 to 211
29 | O=C1COCCN1c1ccc(N2C[C@@H](CCl)OC2=O)cc1 | 143 to 146
30 | Cc1oc2c(C)c(C)c(NCc3ccccc3)c(C)c2c1-c1ccc(C(C)C)cc1 | 94 to 95
31 | OCC1CC(n2c(SCc3ccccc3)nc3cc(Cl)c(Cl)cc32)C(O)C1O (stereo unspecified) | 160 to 162
32 | CSCc1ccc(NC(=O)/C=C/c2cnn(C)c2-c2ccc(F)cc2)cc1 | 165 to 168
33 | COC(=O)Cc1ccc(NC(=O)Nc2ccccc2C)c(OC)c1 | 167 to 168
34 | COC(=O)c1cncn1C(c1ccccc1)c1ccccc1 | 129
35 | C[C@H](NC(=O)CCSC(=O)c1ccccc1)C(=O)O | 99 to 100
36 | Cc1ccccc1-c1ccc2c(c1)CC[C@H]1N(C)C(=O)CC[C@]21C | 82 to 87
37 | C=CC[C@H](C(N)=O)[C@@H](CC(C)C)C(=O)NC1N=C(c2cccc(OC)c2)c2ccccc2N(C)C1=O (stereo partly specified) | 225 to 230
38 | CC(C)c1nc(CN2C(=O)C3(COc4cc5c(cc43)OCCO5)c3ccccc32)cs1 (stereo unspecified) | 60 to 63
39 | O=S(=O)(C(/C=C/c1ccc(Br)cc1)c1c(F)c(F)c(F)c(F)c1F)C(/C=C/c1ccc(Br)cc1)c1c(F)c(F)c(F)c(F)c1F (stereo unspecified) | 176 to 177
40 | O=C1CCC(c2ccc(-n3ccnc3)nc2)=NN1 | 276 to 278
41 | CCOC(=O)c1cn(-c2cc(NC(=O)OC(C)(C)C)c(F)cc2F)c2c(C)c(F)c(F)c(C)c2c1=O | 141 to 142
42 | CC(O)c1cnc2cc(Oc3cc(-c4ccc(C(F)(F)F)cc4)ncn3)ccc2c1 (stereo unspecified) | 156 to 157
43 | COC(=O)c1c(-c2ccc(F)cc2)c2cc(OCc3ccccc3)ccc2c(=O)n1CC(C)C | 118 to 119
44 | CCCC(CC1CCc2c(cccc2OCC(=O)OC)C1)=NO (stereo unspecified) | 95.9 to 97
45 | Cc1cc(C)c2c(c1)SCC2c1ccc(C(C)C)cc1 (stereo unspecified) | 74 to 75
46 | O=c1c(Cl)c(OCc2ccc(F)cc2F)ccn1Cc1cccc2cnccc12 | 235 to 238
47 | COc1ccc(-c2nccc(C)c2OC2SCC(O)C(O)C2O)cc1 (stereo unspecified) | 101
48 | COc1c(Cl)ccc(-c2cc(N)c(Cl)c(C(=O)NOCc3ccco3)n2)c1F | 161 to 164

Row | SMILES | melting point [°C]
49 | CC(C1CC(c2ccc(C(F)(F)F)cc2)C1)N(O)C(N)=O (stereo unspecified) | 147 to 148
50 | Nc1ccc2c(c1)ncn2-c1cccc(-c2cccnc2)c1 | 172 to 175
51 | CC(C)(C)c1cc(CCC(=O)O)cc2nc(-c3ccc(-c4nc5cc(CCC(=O)O)cc(C(C)(C)C)c5o4)s3)oc12 | 247 to 248
52 | CCOc1cccc(OC)c1CN1CCC(=O)C(C(c2ccccc2)c2ccccc2)C1 (stereo unspecified) | 137 to 138
53 | CN(C)c1nc(N)nc2c1ncn2C1CC(F)C(CO)O1 (stereo unspecified) | 96 to 100
54 | COc1ccc2c(c1)CC(NC(C)=O)CC2 (stereo unspecified) | 105 to 108
55 | COC(=O)C(=C(C)C)N1C(=O)C(NC(=O)COc2ccccc2)C1SN1CCCCC1 (stereo unspecified) | 65
56 | CN1CCC(c2cc3c(N)cccc3c(=O)[nH]2)CC1 | 222 to 224
57 | CCC(=O)OCC1(COC(=O)CC)c2ccccc2-c2ccccc21 | 82 to 83
58 | O=C(C=Cc1cccs1)Nc1nnn[nH]1 | 287
59 | Clc1nc(Nc2ccc(OCc3ccccc3)c(Cl)c2)nc(NC2CCCCCC2)n1 | 110
60 | O=C(O)C(=O)c1ccc(OCCOc2cc3ccccc3cc2OCCOc2ccccc2)cc1 | 176 to 177
61 | CCOC(=O)C1=C(C)Nc2cc[nH]c(=O)c2C1c1ccccc1F (stereo unspecified) | 183 to 184
62 | COc1cc(NC(=O)CNC(=O)c2ccccc2)ccc1-c1cnco1 | 243 to 245
63 | N#CCc1cc(Cl)cc(Cl)c1Cl | 60 to 62
64 | CCCn1ncnc1COc1nn2c(-c3ccc(F)cc3)nncc2c1C(C)(C)C | 154
65 | CCOC(=O)C1=C(C(=O)OCC)N(c2ccccc2)C(c2ccccc2)N(c2ccccc2)C1 (stereo unspecified) | 120
66 | O=C1CSC(=S)N1N=c1sc2ccc(C(F)(F)F)cc2s1 | 285 to 288
67 | O=C(O)c1ccc(NC(=O)c2ccc(Cl)cc2)cc1 | > 260
68 | Nc1ccc2ccc(Oc3ccc(F)cc3)nc2n1 | 210
69 | O=C(O)C(CC(c1ccc(OCc2ccc3ccccc3n2)cc1)c1ccc(OCc2ccc3ccccc3n2)cc1)=NO | 104 to 108
70 | COc1cccc(-c2nc(-c3ccccc3)c3ncc(Cl)cc3n2)c1 | 112 to 113
71 | COc1ccc2c(c1)C(=O)NC(C(Cl)(Cl)Cl)O2 (stereo unspecified) | 162 to 165
72 | CCC1(C)NC(=O)c2ccccc2O1 (stereo unspecified) | 76 to 78

Row | SMILES | melting point [°C]
73 | CN1C(=S)N(c2cc(Cl)cc(Cl)c2)C(O)C1O (stereo unspecified) | 143
74 | COn1c(C2CCCCC2)nc2c(N)nc3ccccc3c21 | 220 to 222
75 | CCCCCCCCCCCCCCCCCCOc1ccc(N(CC(=O)O)C(=O)OC(C)(C)C)cc1 | 89 to 92.5
76 | O=C1Cc2cccc(S(=O)c3ccc(Cl)cc3)c2N1 (stereo unspecified) | 191 to 194
77 | CCCOc1cccnc1C(O)c1ccc(N)cc1 (stereo unspecified) | 156 to 157
78 | Cc1oc(-c2ccc3ccccc3c2)nc1COc1ccc(CO)cc1 | 181 to 182
79 | O=CNC(c1cccc(Cl)c1)c1ccnc2ccccc12 (stereo unspecified) | 136
80 | CC(C)C(=O)NC1C=CC(CO)C1 (stereo unspecified) | 80 to 81
81 | Oc1cccc(-c2noc3ccsc23)c1 | 114 to 116
82 | CS(=O)(=O)c1ccc(-c2ccccc2N)cc1 | 164 to 165
83 | CCN1C(C)CN(CC(=O)NC2(c3cc4ccccc4o3)C(=O)Nc3cc(Cl)cc(Cl)c32)CC1C (single isomer, unassigned; (+)) | 157 to 160
84 | Nc1ncc(CCC2CCCCC2)s1 | 98 to 99
85 | C#CCN1C(Oc2ccc(C)cc2)=NS(=O)(=O)N=C1Oc1ccc(C)cc1 | 279 to 280
86 | Cc1nc(N)c2nc(C)n(CCCNC(=O)N3CCOCC3)c2c1C | 129 to 130
87 | CC(=O)OCC1OC(n2ccc3c(C)cccc32)C(OC(C)=O)C(OC(C)=O)C1OC(C)=O (stereo unspecified) | 156 to 157
88 | CON1C(C)(C)CC(OC(=O)NNC(=O)OC2CC(C)(C)N(OC)C(C)(C)C2)CC1(C)C | 147 to 149
89 | CCCCN(CC(=O)OCc1ccccc1)S(=O)(=O)c1ccc(N2CCC(NC[C@H](O)c3ccc(O)c(NS(C)(=O)=O)c3)CC2)cc1 | 59 to 64
90 | Cc1cc(SC2CC(=O)N(c3ccccc3)C2=O)cc(C(C)(C)C)c1O (stereo unspecified) | 158 to 160
91 | CCCc1c(OCCCOc2ccc3c(c2)CCC(CC(=O)OC)C3=O)ccc(C(C)=O)c1O (stereo unspecified) | 96 to 98
92 | N#CCc1ccc(CNC(=O)C2Cc3ccccc3N2S(=O)(=O)c2ccc(-c3cccc(C(F)(F)F)c3)cc2)cc1 (stereo unspecified) | 75 to 80
93 | N#Cc1c(Br)[nH]c(Br)c1C(F)(F)F | 198 to 200
94 | O=C(Nc1cccc(C(=O)O)c1)OCc1cn(-c2cc3cc(C(=O)O)c(=O)[nH]c3cc2[N+](=O)[O-])cn1 | > 300
95 | CCCC1C=C2NC(=O)CC[C@]2(C)[C@H]2CC[C@]3(C)[C@@H]([C@H](C)CCCC(C)C)CC[C@H]3[C@H]12 (stereo partly specified) | 91 to 94
96 | O=c1c2cc(F)c(N3CCCC3)nc2n(-c2ccc(F)cc2)c(=O)n1O | 172 to 174
